# Measurements published in patent US12507703B2, “Methods, devices and compositions for preserving human milk” (The Trustees of Princeton University, priority 2023, dated 2025).
# Test system: lipase
# Experiment: Lipase/lipolysis assay (EnzChek Lipase Substrate, quenched BODIPY-fatty acid conjugate) on stored human milk; also: test concentration or dose not given here
row,Structure (SMILES),Lipase (RFU)
1,"CCCCCCCCCCC[C@@H](C[C@@H]1OC(=O)[C@H]1CCCCCC)OC(=O)[C@H](CC(C)C)NC=O [Orlistat, reference compound]",234.506
2,CC1CCC(C(C)C)C(O)C1 (racemic) [DL-Menthol],1275.242
3,CC1(C)[C@@H](O[C@H]2O[C@H](C(=O)O)[C@@H](O)[C@H](O)[C@H]2O[C@@H]2O[C@H](C(=O)O)[C@@H](O)[C@H](O)[C@H]2O)CC[C@]2(C)[C@H]3C(=O)C=C4[C@@H]5C[C@@](C)(C(=O)O)CC[C@]5(C)CC[C@@]4(C)[C@]3(C)CC[C@@H]12 [Ammonium glycyrrhizinate],918.7261
4,COc1cc(C=CC(=O)O)cc(OC)c1O (stereo in doubt) [Sinapinic acid],1040.338
5,COc1c(O)cc2oc3cc4c(c(O)c3c(=O)c2c1CC=C(C)C)CCC(C)(C)O4 [Compound 3-Isomangostin],1135.455
6,C[C@H](CCC(=O)NCCS(=O)(=O)O)[C@H]1CC[C@H]2[C@@H]3[C@@H](O)C[C@@H]4C[C@H](O)CC[C@]4(C)[C@H]3CC[C@]12C.O.O [Tauroursodeoxycholate (dihydrate)],1204.528
7,O=C1/C(=C2\Nc3ccc(S(=O)(=O)[O-])cc3C2=O)Nc2ccc(S(=O)(=O)[O-])cc21.[Na+].[Na+] [Indigo carmine],862.5624
8,Cc1cc(O)c2c(c1)C(=O)c1cc(O)cc(O[C@@H]3O[C@H](CO)[C@@H](O)[C@H](O)[C@H]3O)c1C2=O [Emodin-1-O-β-D-glucopyranoside],964.8621
9,O=C(CO)[C@@H](O)[C@@H](O)[C@H](O)CO [D-Tagatose],939.2844
10,CCCCCC/C=C/CCCCCCCCCC(=O)O [trans-Vaccenic acid],932.0426
11,O=C(O)/C=C(\CC(=O)O)C(=O)O [trans-Aconitic acid],946.0721
12,CC(=O)O[C@]1(C)CC[C@@]23C[C@@H]1C(C)(C)[C@@H]2CC[C@H]3C [Cedryl acetate],1088.309
13,OC[C@H]1O[C@H](OC[C@H]2O[C@H](OC[C@H]3O[C@H](O[C@]4(CO)O[C@H](CO)[C@@H](O)[C@@H]4O)[C@H](O)[C@@H](O)[C@@H]3O)[C@H](O)[C@@H](O)[C@H]2O)[C@H](O)[C@@H](O)[C@H]1O [Stachyose],882.4617
14,O=C(O)C(O)COP(=O)(O)O [D-3-Phospho-Glyceric Acid],875.2279
15,CC(C)=CCC[C@H](C)[C@@H]1CC[C@]2(C)C3=C(CC[C@@]12C)[C@@]1(C)CC[C@H](O)C(C)(C)[C@@H]1CC3 [Tirucallol],1060.924
16,Cl.NCC(=O)CCC(=O)O [5-Aminolevulinic acid (hydrochloride)],643.3591
17,CC(=O)[C@@]1(O)CC[C@H]2[C@@H]3CCC4=CC(=O)CC[C@]4(C)[C@H]3CC[C@@]21C [17α-Hydroxyprogesterone],867.6703
18,O=c1c(-c2ccc(O)cc2)coc2cc(O[C@@H]3O[C@H](CO)[C@@H](O)[C@H](O)[C@H]3O)ccc12 [Daidzin],828.0829
19,CCOC(=O)c1ccc(O)c(OC)c1 [Ethyl Vanillate],981.4431
20,N[C@@H](CS(=O)O)C(=O)O [L-Cysteinesulfinic acid],867.5137
21,COc1cc(CCN)ccc1O.Cl [3-Methoxytyramine (hydrochloride)],963.841
22,COc1cc(/C=C/C(=O)OCC[N+](C)(C)C)cc(OC)c1O [Sinapine],1084.597
23,COc1cc(/C=C/CO)cc(OC)c1O[C@@H]1O[C@H](CO)[C@@H](O)[C@H](O)[C@H]1O [Syringin],935.9617
24,CC(C)C(=O)O[C@H](CC(=O)O)C[N+](C)(C)C.[Cl-] [Isobutyryl-L-carnitine (chloride)],1069.653
25,COc1cc(-c2cc(=O)c3c(O)c(OC)c(O)cc3o2)ccc1O [Jaceosidin],614.7008
26,N[C@@H](Cc1ccc(O)c(I)c1)C(=O)O [H-Tyr(3-I)-OH],847.3153
